ChEMBL document CHEMBL1148627, “Design and synthesis of heterocyclic malonyl-CoA decarboxylase inhibitors” (Bioorg Med Chem Lett, 2006)

Biological target: T1, Malonyl-CoA decarboxylase, mitochondrial (Homo sapiens, UniProt O95822)
T1 sequence (O95822 whole entry): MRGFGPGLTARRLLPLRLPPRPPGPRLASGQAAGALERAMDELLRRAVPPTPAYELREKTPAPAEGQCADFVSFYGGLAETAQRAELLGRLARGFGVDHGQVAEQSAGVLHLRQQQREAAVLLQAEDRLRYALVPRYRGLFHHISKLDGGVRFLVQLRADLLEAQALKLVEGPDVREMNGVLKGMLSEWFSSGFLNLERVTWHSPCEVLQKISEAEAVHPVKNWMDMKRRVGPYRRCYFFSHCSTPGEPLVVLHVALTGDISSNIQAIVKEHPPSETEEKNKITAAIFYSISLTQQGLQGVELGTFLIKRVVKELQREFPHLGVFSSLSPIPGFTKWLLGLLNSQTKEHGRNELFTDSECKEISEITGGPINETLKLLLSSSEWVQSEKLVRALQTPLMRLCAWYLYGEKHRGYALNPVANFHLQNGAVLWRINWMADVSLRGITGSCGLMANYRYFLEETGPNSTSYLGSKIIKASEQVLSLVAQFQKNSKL
Assay: Inhibitory activity against recombinant human MCD MBP fusion protein

Work on `CC(C)c1nc(CO)cn1-c1ccc(C(O)(C(F)(F)F)C(F)(F)F)cc1` yielded an IC50 of 243 nM.
`CCC(C)c1ncc(/C=C/C(=O)O)n1-c1ccc(C(O)(C(F)(F)F)C(F)(F)F)cc1` (stereo not drawn) was tested, and the IC50 was 523 nM.
`CC(C)c1nc(C(F)(F)F)cn1-c1ccc(C(O)(C(F)(F)F)C(F)(F)F)cc1` gave an IC50 of 567 nM.
`CCC(C)c1ncc(CO)n1-c1ccc(C(O)(C(F)(F)F)C(F)(F)F)cc1` (stereo not drawn) was tested, and the IC50 was 321 nM.
For `CC(C)NC(=O)CCC1CN(Cc2cnc(C(C)C)n2-c2ccc(C(O)(C(F)(F)F)C(F)(F)F)cc2)CCO1` (stereo not drawn), the IC50 was 1080 nM.
`OCc1cnc(-c2ccccn2)n1-c1ccc(C(O)(C(F)(F)F)C(F)(F)F)cc1` showed an IC50 of 791 nM.
With `CCCCNCc1cnc(C(C)C)n1-c1ccc(C(O)(C(F)(F)F)C(F)(F)F)cc1` the IC50 was 482 nM.
In the case of `CCC(C)c1ncc(CNC(C)C)n1-c1ccc(C(O)(C(F)(F)F)C(F)(F)F)cc1` (stereo not drawn), the IC50 is reported as 341 nM.
